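Cultured in 96-well plates, cells were exposed to test compound for 48 hours across five concentrations. The concentration for 50% growth inhibition is given as GI50. TGI is the concentration that stops growth completely.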
Legend:
Experiment in all cases: inhibition of tumour cell growth, NCI panel, 48 h
NCI-H460 lung = test system: NCI-H460 lung
HCC-2998 colon = test system: HCC-2998 colon
SNB-75 CNS = test system: SNB-75 CNS
OVCAR-8 ovarian = test system: OVCAR-8 ovarian
NCI-H226 lung = test system: NCI-H226 lung
OVCAR-5 ovarian = test system: OVCAR-5 ovarian
UACC-257 melanoma = test system: UACC-257 melanoma
HOP-62 NSCLC = test system: HOP-62 NSCLC
SN12C renal = test system: SN12C renal
PC-3 prostate = test system: PC-3 prostate

SMILES | TGI (NCI-H460 lung) [µM] | TGI (HCC-2998 colon) [µM] | TGI (SNB-75 CNS) [µM] | TGI (OVCAR-8 ovarian) [µM] | TGI (NCI-H226 lung) [µM] | TGI (OVCAR-5 ovarian) [µM] | TGI (UACC-257 melanoma) [µM] | TGI (HOP-62 NSCLC) [µM] | TGI (SN12C renal) [µM] | GI50 (PC-3 prostate) [µM] | TGI (PC-3 prostate) [µM] | GI50 (NCI-H460 lung) [µM] | GI50 (HCC-2998 colon) [µM] | GI50 (OVCAR-8 ovarian) [µM] | GI50 (OVCAR-5 ovarian) [µM] | GI50 (UACC-257 melanoma) [µM] | GI50 (HOP-62 NSCLC) [µM] | GI50 (SN12C renal) [µM] | GI50 (SNB-75 CNS) [µM] | GI50 (NCI-H226 lung) [µM]
CCCCCCCCCCCCOC(=S)NC | 34 | 32 | 74.6 | 32.9 | 15.2 | 25.3 | 42.2 | 37.3 | 31.7 | – | – | – | – | – | – | – | – | – | – | –
CC(=O)NNc1nc(C)c(C(/C=C/c2ccc(Cl)cc2)=N/NC(=S)NN)s1 | > 100 | – | > 100 | > 100 | > 100 | > 100 | > 100 | > 100 | > 100 | – | – | – | – | – | – | – | – | – | – | –
COc1cc(CCC(=O)NS(=O)(=O)c2ccccc2)cc(OC)c1OC | > 100 | > 100 | > 100 | > 100 | > 100 | > 100 | > 100 | > 100 | > 100 | – | – | – | – | – | – | – | – | – | – | –
C=C(CN(CCN1CCOCC1)CC(=C)c1ccc(C(=O)Nc2ccccc2N)cc1)c1ccc(C(=O)Nc2ccccc2N)cc1 | > 50 | 3.05 | – | 29.5 | – | 15.2 | 13.5 | > 50 | 21.2 | 15 | > 50 | 8.72 | 0.874 | 1.79 | 7.62 | 3.68 | 9.94 | 7.43 | – | –
CN(Cc1ccccc1)c1nc(=[N+](C)C)ss1 | > 100 | > 100 | > 100 | > 100 | > 100 | > 100 | > 100 | > 100 | > 100 | – | – | – | – | – | – | – | – | – | – | –
Cc1cccc(NC(=O)Cc2nc3ccccc3s2)c1C | > 100 | > 100 | > 100 | > 100 | > 100 | > 100 | > 100 | > 100 | > 100 | – | – | – | – | – | – | – | – | – | – | –
CCc1ccccc1NC(=O)C1=C(C)NC(C)=C(C(=O)Nc2ccccc2CC)C1c1ccc(NC(C)=O)cc1 | > 100 | 48.6 | > 100 | > 100 | > 100 | > 100 | > 100 | 92.8 | > 100 | – | – | – | – | – | – | – | – | – | – | –
O/N=C1/C(=C/c2ccc(Cl)cc2)CCCC1C(NO)c1ccc(Cl)cc1 (configuration not stated) | 35.3 | 47.4 | 39.5 | 55.3 | – | – | 31.6 | 68.9 | 39.7 | – | – | – | – | – | – | – | – | – | – | –
CCCCCC/C=C/CCCCCCCc1cccc(O)c1C(=O)O | > 100 | – | > 100 | > 100 | – | > 100 | > 100 | > 100 | – | – | – | – | – | – | – | – | – | – | – | –
O=C(O)C1=C(Cl)c2ccccc2S1(=O)=O | > 100 | > 100 | > 100 | > 100 | – | > 100 | > 100 | > 100 | > 100 | – | – | – | – | – | – | – | – | – | – | –
C/C(CC(=O)Nc1ccc(NC(=O)/C(C)=N/NS(=O)(=O)c2ccc(C)cc2)cc1)=N\NS(=O)(=O)c1ccc(C)cc1 | > 100 | > 100 | > 100 | > 100 | > 100 | > 100 | > 100 | > 100 | > 100 | – | – | – | – | – | – | – | – | – | – | –
CC(=O)Oc1cc(OC(C)=O)c2cc3c(cc2c1OC(C)=O)C(=O)C1(CCCC1)C3=O | 33.1 | 37.2 | 30 | 31.6 | – | – | – | 42 | 31.6 | – | – | – | – | – | – | – | – | – | – | –
N#CNc1nc(C(=O)Nc2ccc(Cl)cc2)cc(-c2ccccc2)n1 | – | > 100 | > 100 | > 100 | > 100 | > 100 | > 100 | > 100 | > 100 | – | – | – | – | – | – | – | – | – | – | –
CCN1CCC(O)(c2ccc(Cl)c(Cl)c2)C(C(=O)c2ccc(Cl)c(Cl)c2)C1 (configuration not stated) | 43.6 | 35.1 | 28.5 | 41 | 40.1 | 35.7 | 32 | 33.9 | 35 | – | – | – | – | – | – | – | – | – | – | –
CC(=O)[CH-]C(=O)c1ccccc1.CC(=O)[CH-]C(=O)c1ccccc1.CC[O-].O=C1C=C([O-])C(=O)c2ccccc21.[Ti+4] | > 100 | > 100 | > 100 | > 100 | > 100 | > 100 | 86 | > 100 | > 100 | – | – | 71.9 | 23.1 | > 100 | 95.3 | 8.49 | 58.2 | 97.9 | > 100 | 76
CN(C)CCC(=O)NCc1c2nc3ccccc3nc2n2ccccc12 | > 100 | > 100 | – | > 100 | – | > 100 | > 100 | > 100 | > 100 | 33.5 | > 100 | 42.5 | 33.8 | 84.8 | > 100 | 73.1 | 24 | 68 | – | –
CC(=O)OC1C/C(C)=C/[C@H](O)CC(C)/C=C/[C@@]2(C)CCC(C(C)(C)O)C12 (some centres not stated) | > 100 | > 100 | > 100 | > 100 | > 100 | > 100 | > 100 | > 100 | > 100 | – | – | – | – | – | – | – | – | – | – | –

SMILES | TGI (NCI-H460 lung) [µM] | TGI (HCC-2998 colon) [µM] | TGI (SNB-75 CNS) [µM] | TGI (OVCAR-8 ovarian) [µM] | TGI (NCI-H226 lung) [µM] | TGI (OVCAR-5 ovarian) [µM] | TGI (UACC-257 melanoma) [µM] | TGI (HOP-62 NSCLC) [µM] | TGI (SN12C renal) [µM] | GI50 (PC-3 prostate) [µM] | TGI (PC-3 prostate) [µM] | GI50 (NCI-H460 lung) [µM] | GI50 (HCC-2998 colon) [µM] | GI50 (OVCAR-8 ovarian) [µM] | GI50 (OVCAR-5 ovarian) [µM] | GI50 (UACC-257 melanoma) [µM] | GI50 (HOP-62 NSCLC) [µM] | GI50 (SN12C renal) [µM] | GI50 (SNB-75 CNS) [µM] | GI50 (NCI-H226 lung) [µM]
O=C(Nc1ccccc1)OCc1nc2c([nH]1)C(=O)C=CC2=O | 36.8 | 30.1 | 37.1 | 34 | 33.3 | 36.8 | 13.7 | > 100 | 36.3 | – | – | – | – | – | – | – | – | – | – | –
CN(/C(=N\O)c1ccccc1)c1ccccc1 | > 100 | 73.5 | 40.8 | 64.9 | 60 | > 100 | > 100 | 58.8 | > 100 | – | – | – | – | – | – | – | – | – | – | –
O/N=C1/C(=C/c2ccccc2)CCCC1C(NO)c1ccccc1 (configuration not stated) | > 100 | – | > 100 | > 100 | – | > 100 | > 100 | – | > 100 | – | – | – | – | – | – | – | – | – | – | –
COC(=O)C1CCC(N2C(=O)CCC2C(=O)OC)=N1 (configuration not stated) | > 100 | > 100 | > 100 | > 100 | > 100 | > 100 | > 100 | > 100 | > 100 | – | – | – | – | – | – | – | – | – | – | –
CN(C(=O)C1CC1)C1C2CN3CCC(O2)C13 (configuration not stated) | > 100 | > 100 | > 100 | – | > 100 | > 100 | > 100 | > 100 | > 100 | – | – | – | – | – | – | – | – | – | – | –
COc1cc(C(=C2SCCS2)c2nccc3cc(OC)c(OC)cc23)c([N+](=O)[O-])cc1OC | – | > 100 | > 100 | > 100 | > 100 | > 100 | > 100 | > 100 | > 100 | – | – | – | – | – | – | – | – | – | – | –
CCCCCCCCCCCCCCCCCCOCC1(COP(=O)([O-])OCC[N+](C)(C)C)CCCO1 (configuration not stated) | 3.23 | 4.68 | 18.3 | 26.5 | 20.1 | 25.1 | 27.3 | 9.45 | 5.81 | – | – | – | – | – | – | – | – | – | – | –
Cn1c(=O)c2[nH]cnc2n(CC(=O)O)c1=O | > 100 | – | > 100 | > 100 | > 100 | > 100 | – | > 100 | > 100 | – | – | – | – | – | – | – | – | – | – | –
COc1ccc(NCc2c(O)ccc3ccccc23)cc1 | > 100 | – | > 100 | 29.2 | – | 49.3 | 44.5 | > 100 | > 100 | – | 49.9 | – | – | – | – | – | – | – | – | –
NC(=O)C12CCC1C1CCCCC12N1CCOCC1 (configuration not stated) | > 100 | > 100 | > 100 | > 100 | – | > 100 | – | > 100 | > 100 | – | – | – | – | – | – | – | – | – | – | –
C[n+]1ccc2[nH]c3ccccc3c2c1 | > 100 | > 100 | > 100 | > 100 | > 100 | > 100 | > 100 | > 100 | > 100 | – | – | – | – | – | – | – | – | – | – | –
COC(=O)NN=C1C(C)(C)C(=NNC(=O)OC)C1(C)C | > 100 | > 100 | > 100 | > 55.9 | > 100 | > 100 | > 100 | > 100 | > 100 | – | – | – | – | – | – | – | – | – | – | –
O=C(Cc1nc2ccccc2s1)C(=O)Nc1ccc(Cl)cc1Cl | > 100 | > 100 | > 100 | > 100 | > 100 | > 100 | > 100 | > 100 | > 100 | – | – | – | – | – | – | – | – | – | – | –
CCC[CH2][Sn]1([CH2]CCC)[O]CC([CH2][Sn]([c]2ccccc2)([c]2ccccc2)[c]2ccccc2)[O]1 (configuration not stated) | – | 22.4 | 20.2 | 34 | 38.8 | 31 | 26.6 | – | 27.7 | – | – | – | 10.2 | 15.2 | 17 | 12.6 | – | 14 | 6.49 | 20.7
CN(C)NC(=S)NC12CC3CC(CC(C3)C1)C2 | > 100 | > 100 | > 100 | > 100 | > 100 | > 100 | > 100 | > 100 | > 100 | – | – | – | – | – | – | – | – | – | – | –
CC(=O)[CH-]C(=O)c1ccccc1.CC(=O)[CH-]C(=O)c1ccccc1.CC12CC3(C)CC(C)(C1)CC([O-])(C2)C3.CC[O-].[Ti+4] | 46 | – | 29.4 | > 100 | – | – | 76.1 | 53.3 | > 100 | – | – | 16.8 | – | 27.7 | – | 27.9 | 22.3 | 43.5 | 14.3 | –

— PubChem BioAssay (NCI)
